Data reported in US9273057B2 (Bristol-Myers Squibb Company, priority 2012, dated 2016).

Target: CK2A1 (CK2α/β) (Homo sapiens, UniProt P68400)
Assay: CK2 kinase assay, CK2A1 (CK2α/β)
Type: biochemical
Conditions: Table A; read-out: CK2A1 (CK2α/β) (IC50)

Sequence of CK2A1 (CK2α/β) (P68400 whole entry, species assumed): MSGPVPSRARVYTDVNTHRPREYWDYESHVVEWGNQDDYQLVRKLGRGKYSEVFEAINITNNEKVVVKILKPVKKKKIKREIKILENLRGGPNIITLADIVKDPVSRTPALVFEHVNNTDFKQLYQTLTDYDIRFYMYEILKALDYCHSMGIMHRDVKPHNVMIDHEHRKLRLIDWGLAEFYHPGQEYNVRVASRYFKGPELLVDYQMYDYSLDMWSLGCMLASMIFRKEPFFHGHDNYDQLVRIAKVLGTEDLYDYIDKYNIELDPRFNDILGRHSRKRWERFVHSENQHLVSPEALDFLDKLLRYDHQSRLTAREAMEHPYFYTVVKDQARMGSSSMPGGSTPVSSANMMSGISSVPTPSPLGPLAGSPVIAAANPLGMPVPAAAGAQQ
Sequence of CK2A1 (CK2α/β) (P67870 whole entry partner, species assumed): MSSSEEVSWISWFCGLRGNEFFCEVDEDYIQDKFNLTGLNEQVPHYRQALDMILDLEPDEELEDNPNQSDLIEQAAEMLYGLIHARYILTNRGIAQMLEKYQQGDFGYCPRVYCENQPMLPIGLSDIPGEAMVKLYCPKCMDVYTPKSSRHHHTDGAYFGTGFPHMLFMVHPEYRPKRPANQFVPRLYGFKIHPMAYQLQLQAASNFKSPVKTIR

Structure (SMILES) | IC50 [nM]
COC(=O)NC1CCN(c2cc(C#N)cc(Nc3nc(NC4CC4)c4ncc(C#N)n4n3)c2Cl)C[C@H]1N(C)CC(C)(C)O (stereo in doubt) [Example 767, methyl N-[(3R,4S)-1-(2-chloro-5-cyano-3-{[7-cyano-4-(cyclopropylamino)imidazo [2,1-f][1,2,4]triazin-2-yl]amino}phenyl)-3-[(2-hydroxy-2-methylpropyl)(methyl)amino]piperidin-4-yl] carbamate] | 18.1
CCNc1nc(Nc2cc(C#N)cc(N3CC[C@@H](NC(=O)OC)[C@@H](N(C)C(C)C(N)=O)C3)c2Cl)nn2c(C#N)cnc12 (stereo in doubt) [Example 769, methyl N-[(3S,4R)-3-{[(1S)-1-carbamoylethyl](methyl)amino}-1-(2-chloro-5-cyano-3-{[7-cyano-4-(ethylamino)imidazo[2,1-f][1,2,4]triazin-2-yl]amino}phenyl)piperidin-4-yl]carbamate] | 3
CN1CCN(c2cc(C#N)cc(Nc3nc(NC4CC4)c4ncc(C#N)n4n3)c2Cl)CC1 [Example 1, 2-((2-chloro-5-cyano-3-(4-methyl-1-piperazinyl)phenyl)amino)-4-(cyclopropylamino)imidazo[2,1-f][1,2,4]triazine-7-carbonitrile] | 0.9
Cn1cnc2cc(Nc3nc(NC4CC4)c4ncc(C#N)n4n3)ccc21 [Example 3, 4-(cyclopropylamino)-2-((1-methyl-1H-benzimidazol-5-yl)amino)imidazo[2,1-f][1,2,4]triazine-7-carbonitrile] | 0.42
CS(=O)(=O)N1CCN(c2cc(C#N)cc(Nc3nc(NC4CC4)c4ncc(C#N)n4n3)c2Cl)CC1 [Example 4, 2-((2-chloro-5-cyano-3-(4-(methylsulfonyl)-1-piperazinyl)phenyl)amino)-4-(cyclopropylamino)imidazo [2,1-f][1,2,4]triazine-7-carbonitrile] | 0.64
CN1C[C@H]2C[C@@H]1CN2c1cc(C#N)cc(Nc2nc(NC3CC3)c3ncc(C#N)n3n2)c1Cl [Example 5, 2-((2-chloro-5-cyano-3-((1R,4R)-5-methyl-2,5-diazabicyclo[2.2.1]hept-2-yl)phenyl)amino)-4-(cyclopropylamino)imidazo [2,1-f][1,2,4]triazine-7-carbonitrile] | 0.44
N#Cc1cc(Nc2nc(NC3CC3)c3ncc(C#N)n3n2)c(Cl)c(N2CCN3CCC2C3)c1 (stereo not shown) [Example 8, 2-((2-chloro-5-cyano-3-(1,4-diazabicyclo[3.2.1]oct-4-yl)phenyl)amino)-4-(cyclopropylamino)imidazo [2,1-f][1,2,4]triazine-7-carbonitrile] | 0.53
CN1CCN(C2CCN(c3cc(C#N)cc(Nc4nc(NC5CC5)c5ncc(C#N)n5n4)c3Cl)CC2)CC1 [Example 12, 2-((2-chloro-5-cyano-3-(4-(4-methyl-1-piperazinyl)-1-piperidinyl)phenyl)amino)-4-(cyclopropylamino)imidazo [2,1-f][1,2,4]triazine-7-carbonitrile] | 1.15
COC(=O)N[C@@H]1C[C@@H]2CN(c3cc(C#N)cc(Nc4nc(NC5CC5)c5ncc(C#N)n5n4)c3Cl)C[C@@H]2C1 [Example 13, (+/−) methyl ((3aR,5r,6aS)-2-(2-chloro-5-cyano-3-((7-cyano-4-(cyclopropylamino)imidazo [2,1-f][1,2,4]triazin-2-yl)amino)phenyl)octahydro-cyclopenta[c]pyrrol-5-yl)carbamate] | 1.7
COC(=O)N[C@H]1CN(c2cc(C#N)cc(Nc3nc(NC4CC4)c4ncc(C#N)n4n3)c2Cl)C[C@H]1OC [Example 14, methyl ((3S,4R)-1-(2-chloro-5-cyano-3-((7-cyano-4-(cyclopropylamino)imidazo [2,1-f][1,2,4]triazin-2-yl)amino)phenyl)-4-methoxy-3-pyrrolidinyl)carbamate] | 0.7
